In patent EP4752152A1, “STEROID COMPOUND, AND PREPARATION METHOD THEREFOR AND USE THEREOF” (Cholesgen (Shanghai) Co.Ltd., priority 2023, dated 2025):

System: SREBP pathway
Assay: SREBP luciferase reporter gene system (SRE-luciferase assay)
Assay type: cell-based, human
Conditions: Huh-7/SRE-luc cells, sterol-deficient medium, 0.01-10 µM
Method: Huh-7/SRE-luc cells were incubated in sterol-deficient medium (5% lipoprotein deficient serum, 2 µM lovastatin, 10 µM mevalonic acid) with corresponding concentrations of compounds for 16 hours. The Huh-7/SRE-luc cells were human hepatoma cell line Huh-7 stably expressing LDLR promotor-luciferase and green fluorescent protein (GFP). These cells were obtained by transfecting Huh-7 with pLDLR-promotor-luciferase and pEGFP-N1 plasmids, followed by screening under G418 antibiotic selection pressure. The Huh-7 cells were purchased from ATCC, the pLDLR-promotor-luciferase plasmid was obtained by molecular cloning methods, and the pEGFP-N1 plasmid was purchased from Addgene.
After compound treatment, the cells were lysed with lysis buffer (E397A, Promega). After the addition of luciferase substrate (E1500, Promega), the activity of SRE-driven luciferase was measured using a BioTek Synergy HTX microplate reader (including but not limited to this type of instrument). The fluorescence intensity of green fluorescent protein (EGFP) was also measured using the above BioTek microplate reader (including but not limited to this type of instrument) and served as an internal control. The ratio of SRE-driven luciferase activity divided by the fluorescence intensity of green fluorescent protein was used as an indicator of SREBP pathway activity. The test data for each test compound were analyzed using Prism software (with the DMSO-treated group as the reference to calculate the compound inhibition rate, fitted using the Prism log(inhibitor) vs. response--Variable slope (four-parameter) model, calculation formula: Y = Bottom + (Top - Bottom)/(1 + 10^((LogIC50 - X) × HillSlope))), to obtain the IC50 parameters of the compounds.
Using the method described in 1.1, the inhibitory effect of the compounds of the present disclosure on the SREBP pathway was tested. The concentration gradient for each compound was designed as 0.01, 0.03, 0.1, 0.3, 1.0, 3.0, and 10 µM, with the vehicle DMSO as the control.

SMILES | IC50 (Homo sapiens, Huh-7, 16 h) [µM] | IC50 (16 hours) [µM]
C[C@H](CCC[C@H](O)c1nc2cnccc2n1C)[C@H]1CC[C@H]2[C@H]3[C@H](CC[C@]12C)[C@@]1(C)CC[C@H](O)[C@H](O)[C@@H]1CC3(F)F [Compound 318, (1R,3aS,3bS,5aR,6R,7S,9aR,9bS,11aR)-4,4-difluoro-1-[(2R,6S)-6-hydroxy-6-(1-methylimidazo[5,4-c]pyridin-2-yl)hexan-2-yl]-9a,11a-dimethylhexadecahydro-1H-cyclopenta[1,2-a]phenanthrene-6,7-diol] | 0.296 | –
COc1cccc(F)c1[C@H](O)CCC[C@@H](C)[C@H]1CC[C@H]2[C@H]3[C@H](CC[C@]12C)[C@@]1(C)CC[C@H](O)C[C@@H]1CC3(F)F (single isomer, unassigned) [Compound 315] | 0.125 | –
C[C@H](CCCC(O)c1cncc2c1cnn2C)[C@H]1CC[C@H]2[C@H]3[C@H](CC[C@]12C)[C@@]1(C)CC[C@H](O)[C@H](O)[C@@H]1CC3(F)F (single isomer, unassigned) [Compound 288, (1R,3aS,3bS,5aR,6R,7S,9aR,9bS,11aR)-4,4-difluoro-1-[(2R,6R)-6-hydroxy-6-(1-methylpyrazolo[3,4-c]pyridin-4-yl)hexan-2-yl]-9a,11a-dimethylhexadecahydro-1H-cyclopenta[1,2-a]phenanthrene-6,7-diol or (1R,3aS,3bS,5aR,6R,7S,9aR,9bS,11aR)-4,4-difluoro-1-[(2R,6S)-6-hydroxy-6-(1-methylpyrazolo[3,4-c]pyridin-4-yl)hexan-2-yl]-9a,11a-dimethylhexadecahydro-1H-cyclopenta[1,2-a]phenanthrene-6,7-diol] | – | 0.388
C[C@H](CCCC(O)c1cccc2[nH]ncc12)[C@H]1CC[C@H]2[C@H]3[C@H](CC[C@]12C)[C@@]1(C)CC[C@H](O)[C@H](O)[C@@H]1CC3(F)F (single isomer, unassigned) [Compound 273, (1R,3aS,3bS,5aR,6R,7S,9aR,9bS,11aR)-4,4-difluoro-1-[(2R,6S)-6-hydroxy-6-(1H-indazol-4-yl)hexan-2-yl]-9a,11a-dimethylhexadecahydro-1H-cyclopenta[1,2-a]phenanthrene-6,7-diol or (1R,3aS,3bS,5aR,6R,7S,9aR,9bS,11aR)-4,4-difluoro-1-[(2R,6R)-6-hydroxy-6-(1H-indazol-4-yl)hexan-2-yl]-9a,11a-dimethylhexadecahydro-1H-cyclopenta[1,2-a]phenanthrene-6,7-diol] | – | 0.361
C[C@H](CCN(C)C(=O)c1ccccc1F)[C@H]1CC[C@H]2[C@@H]3CC[C@@]4(C)[C@@H](O)[C@@H](O)CC[C@]4(C)[C@H]3CC[C@]12C [Compound 15A, 2-fluoro-N-[(3R)-3-[(1R,3aS,3bS,5aR,6R,7S,9aR,9bS,11aR)-6,7-dihydroxy-5a,9a,11a-trimethylhexadecahydro-1H-cyclopenta[1,2-a]phenanthren-1-yl]butyl]-N-methylbenzamide] | 0.37 | –
COc1ccnc(OC)c1C(O)CCC[C@@H](C)[C@H]1CC[C@H]2[C@H]3[C@H](CC[C@]12C)[C@@]1(C)CC[C@H](O)[C@H](O)[C@@H]1CC3(F)F (single isomer, unassigned) [Compound 172, (1R,3aS,3bS,5aR,6R,7S,9aR,9bS,11aR)-1-[(2R,6R)-6-(2,4-dimethoxypyridin-3-yl)-6-hydroxyhexan-2-yl]-4,4-difluoro-9a,11a-dimethylhexadecahydro-1H-cyclopenta[1,2-a]phenanthrene-6,7-diol or (1R,3aS,3bS,5aR,6R,7S,9aR,9bS,11aR)-1-[(2R,6S)-6-(2,4-dimethoxypyridin-3-yl)-6-hydroxyhexan-2-yl]-4,4-difluoro-9a,11a-dimethylhexadecahydro-1H-cyclopenta[1,2-a]phenanthrene-6,7-diol] | – | 0.113
C[C@H](CCC1CC(=NO)C1)[C@H]1CC[C@H]2[C@@H]3CC[C@H]4C[C@@H](O)CC[C@]4(C)[C@H]3CC[C@]12C (stereo partly drawn) [Compound 135, {3-[(3R)-3-[(1R,3aS,3bR,5aS,7S,9aS,9bS,11aR)-7-hydroxy-9a,11a-dimethylhexadecahydro-1H-cyclopenta[1,2-a]phenanthren-1-yl]butyl]cyclobutylidene}hydroxylamine] | 4.03 | –
COc1cccc(OC)c1C(O)CCC[C@@H](C)[C@H]1CC[C@H]2[C@H]3[C@H](CC[C@]12C)[C@@]1(C)CC[C@H](O)[C@H](O)[C@@H]1CC3(F)F (stereo partly drawn) [Compound 116, (1R,3aS,3bS,5aR,6R,7S,9aR,9bS,11aR)-1-[(2R)-6-(2,6-dimethoxyphenyl)-6-hydroxyhexan-2-yl]-4,4-difluoro-9a,11a-dimethylhexadecahydro-1H-cyclopenta[1,2-a]phenanthrene-6,7-diol] | 0.177 | –
C[C@H](CCC[C@@H](O)c1ncc(F)cc1F)[C@H]1CC[C@H]2[C@H]3[C@H](CC[C@]12C)[C@@]1(C)CC[C@H](O)[C@H](O)[C@@H]1CC3(F)F (single isomer, unassigned) [Compound 280] | 0.238 | –
COc1cc(C(O)CCC[C@@H](C)[C@H]2CC[C@H]3[C@H]4[C@H](CC[C@]23C)[C@@]2(C)CC[C@H](O)[C@H](O)[C@@H]2CC4(F)F)cc(F)n1 (single isomer, unassigned) [Compound 247, (1R,3aS,3bS,5aR,6R,7S,9aR,9bS,11aR)-4,4-difluoro-1-[(2R,6S)-6-(6-fluoro-2-methoxypyridin-4-yl)-6-hydroxyhexan-2-yl]-9a,11a-dimethylhexadecahydro-1H-cyclopenta[1,2-a]phenanthrene-6,7-diol or (1R,3aS,3bS,5aR,6R,7S,9aR,9bS,11aR)-4,4-difluoro-1-[(2R,6R)-6-(6-fluoro-2-methoxypyridin-4-yl)-6-hydroxyhexan-2-yl]-9a,11a-dimethylhexadecahydro-1H-cyclopenta[1,2-a]phenanthrene-6,7-diol] | 0.04 | –
C[C@H](CCC[C@H](O)c1nnnn1C)[C@H]1CC[C@H]2[C@H]3[C@H](CC[C@]12C)[C@@]1(C)CC[C@H](O)C[C@@H]1CC3(F)F (single isomer, unassigned) [Compound 380] | 0.152 | –
C[C@H](CCCC(O)c1c(F)ccnc1F)[C@H]1CC[C@H]2C3=C(F)C[C@H]4[C@@H](O)[C@@H](O)CC[C@]4(C)[C@H]3CC[C@]12C (stereo partly drawn) [Compound 145, (1R,3aR,5aR,6R,7S,9aR,9bR,11aR)-1-[(2R)-6-(2,4-difluoropyridin-3-yl)-6-hydroxyhexan-2-yl]-4-fluoro-9a,11a-dimethyl-2,3,3a,5,5a,6,7,8,9,9a,9b,10,11,11a-tetradecahydro-1H-cyclopenta[1,2-a]phenanthrene-6,7-diol] | 0.35 | –
C[C@H](CCCC(O)c1ccc(F)nc1F)[C@H]1CC[C@H]2[C@H]3[C@H](CC[C@]12C)[C@@]1(C)CC[C@H](O)[C@H](O)[C@@H]1CC3(F)F (stereo partly drawn) [Compound 148, (1R,3aS,3bS,5aR,6R,7S,9aR,9bS,11aR)-1-[(2R)-6-(2,6-difluoropyridin-3-yl)-6-hydroxyhexan-2-yl]-4,4-difluoro-9a,11a-dimethylhexadecahydro-1H-cyclopenta[1,2-a]phenanthrene-6,7-diol] | 0.08 | –
COc1ccccc1C(O)CCC[C@@H](C)[C@H]1CC[C@H]2C3=C(F)C[C@H]4C[C@@H](O)CC[C@]4(C)[C@H]3CC[C@]12C (stereo partly drawn) [Compound 73, (1R,3aR,5aR,7S,9aS,9bR,11aR)-4-fluoro-1-[(2R)-6-hydroxy-6-(2-methoxyphenyl)hexan-2-yl]-9a,11a-dimethyl-2,3,3a,5,5a,6,7,8,9,9a,9b,10,11,11a-tetradecahydro-1H-cyclopenta[1,2-a]phenanthren-7-ol] | 0.55 | –
C[C@H](CCCC(O)c1cccc(F)c1)[C@H]1CC[C@H]2C3=C(F)C[C@H]4[C@@H](O)[C@@H](O)CC[C@]4(C)[C@H]3CC[C@]12C (stereo partly drawn) [Compound 45, (1R,3aR,5aR,6R,7S,9aR,9bR,11aR)-4-fluoro-1-[(2R)-6-(3-fluorophenyl)-6-hydroxyhexan-2-yl]-9a,11a-dimethyl-2,3,3a,5,5a,6,7,8,9,9a,9b,10,11,11a-tetradecahydro-1H-cyclopenta[1,2-a]phenanthrene-6,7-diol] | 0.198 | –
C[C@H](CCC[C@@H](O)c1ccc(F)nc1OCC1COC1)[C@H]1CC[C@H]2[C@H]3[C@H](CC[C@]12C)[C@@]1(C)CC[C@H](O)[C@H](O)[C@@H]1CC3(F)F [Compound 386, (1R,3aS,3bS,5aR,6R,7S,9aR,9bS,11aR)-4,4-difluoro-1-[(2R,6R)-6-{6-fluoro-2-[(oxetan-3-ylmethyl)oxy]pyridin-3-yl}-6-hydroxyhexan-2-yl]-9a,11a-dimethylhexadecahydro-1H-cyclopenta[1,2-a]phenanthrene-6,7-diol] | 0.026 | –
COc1cc(F)cc(F)c1[C@@H](O)CCC[C@@H](C)[C@H]1CC[C@H]2C3=C(F)C[C@H]4[C@@H](O)[C@@H](O)CC[C@]4(C)[C@H]3CC[C@]12C (single isomer, unassigned) [Compound 202] | 0.411 | –
